Reference: PMC5599584, “Kinetic adaptation of human Myo19 for active mitochondrial transport to growing filopodia tips” (Scientific Reports, 2017)
One block for each compound: values may come before it.

Tests used:
[1] = molecular target: T1, Myo19-3IQ (Homo sapiens, UniProt Q96H55); type: biochemical; conditions: no actin; 250 µM ATP (initial)
T1 construct: with Calmodulin

[2] = molecular target: T2, Acto·Myo19-3IQ (Homo sapiens, UniProt Q96H55); experiment: biochemical
[3] = molecular target: T2, Acto·Myo19-3IQ; experiment: stopped-flow mant FRET, association kinetics; type: binding; design: with Calmodulin; Actin, alpha skeletal muscle (rabbit or chicken skeletal muscle F-actin); conditions: KMg50 buffer pH 7.3, 25 °C; bound to F-actin; labelled compound
[4] = molecular target: T1, Myo19-3IQ; experiment: stopped-flow mant FRET / single turnover; type: binding; conditions: read-out: K 1T
[5] = molecular target: F-actin (actin filaments from rabbit or chicken skeletal muscle) (rabbit or chicken) (UniProt P68135)

T1 sequence (Q96H55 whole entry, looked up): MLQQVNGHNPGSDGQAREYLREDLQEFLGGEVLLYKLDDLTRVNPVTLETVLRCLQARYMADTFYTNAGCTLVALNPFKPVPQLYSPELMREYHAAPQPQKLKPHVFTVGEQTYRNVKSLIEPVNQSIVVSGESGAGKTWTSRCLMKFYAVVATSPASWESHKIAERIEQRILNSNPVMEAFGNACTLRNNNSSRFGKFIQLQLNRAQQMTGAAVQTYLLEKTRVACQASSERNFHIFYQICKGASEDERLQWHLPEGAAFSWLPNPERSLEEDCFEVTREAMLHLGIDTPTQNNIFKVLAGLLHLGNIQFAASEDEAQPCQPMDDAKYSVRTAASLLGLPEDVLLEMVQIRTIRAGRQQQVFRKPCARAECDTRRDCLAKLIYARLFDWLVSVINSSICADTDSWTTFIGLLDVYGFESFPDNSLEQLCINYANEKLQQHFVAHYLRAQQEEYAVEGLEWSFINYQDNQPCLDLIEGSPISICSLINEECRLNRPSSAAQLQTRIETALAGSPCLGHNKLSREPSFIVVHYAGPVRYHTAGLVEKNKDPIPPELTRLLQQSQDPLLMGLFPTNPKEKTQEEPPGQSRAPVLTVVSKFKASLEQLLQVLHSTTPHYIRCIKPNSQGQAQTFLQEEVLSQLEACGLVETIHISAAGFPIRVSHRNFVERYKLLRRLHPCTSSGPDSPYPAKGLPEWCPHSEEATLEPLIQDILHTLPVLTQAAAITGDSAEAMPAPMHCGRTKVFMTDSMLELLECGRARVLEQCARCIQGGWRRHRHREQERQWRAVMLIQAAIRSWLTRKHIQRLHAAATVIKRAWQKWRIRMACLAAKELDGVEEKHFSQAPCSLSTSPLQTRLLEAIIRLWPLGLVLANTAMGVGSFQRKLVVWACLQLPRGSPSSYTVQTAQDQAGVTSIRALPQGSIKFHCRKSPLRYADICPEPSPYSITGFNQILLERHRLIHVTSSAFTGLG
T2 sequence (Q96H55 whole entry, looked up): as above

Kd [2]: 476 ± 116 µM
Compound: Nc1ncnc2c1ncn2[C@@H]1O[C@H](COP(=O)(O)OP(=O)(O)OP(=O)(O)O)[C@@H](O)[C@H]1O [ATP]
quenched-flow Pi burst; NADH-coupled ATPase [1]: Myo19-3IQ (in the absence of actin) mixed with ATP yielded a Pi burst amplitude

Kd [4]: ~0.04 µM
Compound: CNc1ccccc1C(=O)O[C@H]1C[C@H](n2cnc3c(N)ncnc32)O[C@@H]1COP(=O)(O)OP(=O)(O)OP(=O)(O)O [mT]
stopped-flow mant FRET, association kinetics [3]: mT bound similarly to Myo19-3IQ or Acto·Myo19-3IQ

K ATPase: actin concentration at the half maximal steady-state ATPase activity (NADH-coupled assay, 1-100 µM F-actin) [5]: 11.6 µM
Compound: Myo19-3IQ (human Myo19 motor domain with three IQ light chain-binding motifs, with its associated calmodulin light chain) (from UniProt P0DP23 1-149) (complex)
